Experimental data taken from US20210052580A1 (ST IP Holding AG, priority 2018, published 2021).
Values after ≈ are worked out from the molar mass of the structure shown. Like-named read-outs stand apart in the source and are kept apart here.

Key:
[1] = tested on: primary human gingival epithelial cells (HGEPp); assay: TACS MTT cell viability assay, H2O2-induced oxidative stress; assay type: cell-based
Description: Pooled primary HGEPps were propagated in CnT-Prime epithelial culture medium provided by CellnTec on 100 mm petri dishes coated with 30 mg/ml Type I rat tail collagen (BD Biosciences) diluted in Dulbecco's phosphate-buffered saline (DPBS). […] The cells were harvested when they reached 70-90% confluency as observed by light microscopy. For routine cultivation, the medium was changed every 3 days. For both the cell viability and ROS assays, the cells from passages 3-7 were seeded at 5×10 3, 2.5×10 4, 5×10^4 cells/cm 2 density to grow cell monolayers in 24-well flat-bottomed tissue culture plates and acclimated overnight at 37° C.
Preparation of Dosing Solutions • 1. Recrystallized oltipraz was received as a powder from Supportive Therapeutics and a 100 mM DMSO stock was prepared. Further dilutions were prepared in DMSO from the 100 mM DMSO stock and each DMSO dilution was then added into 10 mL of Dulbecco's phosphate-buffered saline to arrive at final concentrations of 10, 50, and 100 μM. • 2. The Normal (Control) group contained saline with the same percentage of DMSO as the treated group. • 3. All dosing solutions contained 0.3% of DMSO which is well below the maximum tolerated DMSO percent of 0.8% for HGEPp cells. • 4. Formulated oltipraz crystals and control powder were received as a powder and a 500 mM DMSO stock solution was prepared for each powder. • 5.
Cell Survival Assay (TACS MTT Kit) • 1. Plate cell concentration was selected to be 6.25×10^5/ml to yield an OD absorbance within the linear portion of the control curve. • 2. Once the HGEPp cells were cultured and ready on the microplate, the media was removed from all the wells and discarded. The cells were washed gently with DPBS 2-3 times and the last wash removed and discarded. • 3. Added 10 ul of MTT reagent to each well. • 4. Incubated the plate for 6 hours at 37° C. Viewed the cells to confirm the appearance of intracellular precipitate using an inverted microscope. • 5. Added 100 ul of Detergent Reagent to all wells, including the control wells taking care not to shake the plates • 6. Left the plate covered in the dark at room temperature overnight. • 7. Removed the plate cover and measured the absorbance of the wells, including the blanks at 570 nm. • 8. Determined the average values from triplicate readings after subtracting the average value for the blanks.
HGEPp cells were exposed to different concentrations of H2O2 for 4 h to examine H2O2-induced oxidative stress. The cells were exposed to 0-0.6 mM H2O2 for 4 h and cell viability was evaluated using the TACS MTT Cell Proliferation Assay Kit. The percentage of cell survival was determined using the ratio of the optical density (OD) of the test sample to the OD of the control×100%. […] The data is mean+/−SD of 3 experiments in 6 replicate wells.
Normal control cells were cultured in DPBS containing 0.3% DMSO. Positive Control (PC): oxidative stressed group cells after treatment with 0.3 mM H2O2 for 4 h. […] The percentage of cell survival was determined by the ratio of the optical density (OD) of the test samples to the OD of the control×100%.
Pooled primary HGEPp's were propagated in CnT-Prime epithelial culture medium provided by CellnTec on 100 mm petri dishes coated with 30 mg/ml Type I rat tail collagen (BD Biosciences) diluted in Dulbecco's phosphate-buffered saline (DPBS). […] The cells were harvested when they reached 70-90% confluency as observed by light microscopy. For routine cultivation, the medium was changed every 3 days.

rat cortical neurons = assay type: cell-based; details: MK801 10 μM
Description: The objective of the experiments in this Example was to explore the protective effects of three compounds in the neurotoxicity induced by oxygen glucose deprivation. A multiparametric cell-based protocol is used in this Example in order to determine the mechanisms of action. The assay was applied to “freshly isolated” rat cortical neurons cultured in 96-well-plates and exposed to the compounds at 100 μg/ml. Moreover, some cells were treated with the compounds in addition with atovaquone (100 μg/ml).
In vitro ischemic injury was induced in rat primary neuronal culture by oxygen-glucose deprivation for 2 hours. Neurons were incubated with the compounds during 1 hour eighteen hours prior to the OGD induction. MK801 10 μM was used as positive neuroprotection control. After the treatments, supernatants were collected for measuring extracellular LDH levels (plasma membrane integrity determination) and cells were simultaneously incubated with three optically compatible fluorescent dyes, and subsequently analyzed with BD Pathway 855 (Becton Dickinson). Cell parameters associated with nuclear morphology, mitochondrial damage and caspase 3/7 activation-indicative of prelethal cytotoxic effects and representative of different mechanism of toxicity-were measured by HCS at single cell level. Finally, cells were fixed and stained with beta III tubulin antibody for measuring the neurite outgrowth.
Primary cultures of cortical neurons were isolated from cerebral cortices of Sprague-Dawley rat foetuses at embryonic day 18. Brains were removed and after removing the meninges, the tissues were dissected under a binocular microscope. Neurons were enzymatically dispersed by trypsin 0.2% and DNAse […] digestion for 10 min at 37° C., plated in poly-L-lysine wells and incubated with B27 supplemented neurobasal medium.
Cortical neurons of 18 days old embryonic rats were plated in poly-l-lysine coated 96-well plates (30.000 cells per well). Cells were maintained in neurobasal medium supplemented with B-27 component for 5 days at 37° C. in a humidified 5% CO2 atmosphere. At day 5, cells were subjected to oxygen glucose deprivation (OGD) for 2 hours at 37° C. The cultures were placed in an aerobic chamber (Billops-Rothenberg) and incubated in neurobasal medium lacking glucose and B27 factor, and aerated with an anaerobic gas mixture (94.7% N2, 5% CO2, 0.3% O2) to remove residual oxygen. Control cultures were kept in the original neurobasal medium but were submitted to the anaerobic conditions. At the end of the OGD conditions, the cells were removed from the anaerobic chamber, the OGD medium was replaced with neurobasal medium containing glucose, and the cells were incubated for an additional 24 h. The test compounds were added to the neurons eighteen hours prior to the OGD induction and maintained for 1 h. Replicate cultures were treated as described above with MK801 as positive control of neuroprotection.
Compound neuroprotective potential was determined by HCS analysis, which included the following endpoints: plasma membrane integrity, cell viability, alterations of mitochondrial membrane potential, caspase 3/7 activation and neurite outgrowth.
(§1) To determine the integrity of the plasma membrane, supernatants were collected 24 h after treatments and LDH assay was performed following manufacturer's instructions.
(§2) Cell number was determined by hoechst 33342 nucleic acid staining. This dye allows a sensitive cell number determination by fluorescence microscopy. Cells were stained with 5 μg/ml, washed 3 times and measured at 380 nm/460 nm Ex/Em.
Mitochondrial activity was determined using TMRM, a lipophilic cationic fluorescent probe that freely crosses the plasma membrane and accumulates within mitochondria, depending on their membrane potential. Cells were stained with 50 nM tetramethyl rhodamine methyl ester-TMRM, washed 3 times and measured at 555 nm/645 nm Ex/Em. TMRM fluorescence intensity in cytosolic regions around the nucleus was registered. […]

mouse cardiomyocytes = assay type: cell-based; details: NAC 100 μM
Description: In vitro ischemic injury was induced in mouse neonatal primary cardiomyocyte culture by oxygen-glucose deprivation for 18 hours. Cardiomyocytes were incubated with two concentrations of the compounds during 4 hours prior to the OGD induction. The test compounds were also present during the OGD insult and 24 h-recovery period. NAC was used as positive control of cardioprotection. After treatments, cell viability was measured with WST-8 and ATP, and supernatants were collected to measure LDH for studying plasma membrane integrity. Cells were simultaneously loaded with two fluorescent dyes showing optical compatibility, and were then analyzed with BD Pathway 855 (Becton Dickinson). By using the technology of HCS, cell parameters associated with nuclear morphology and caspase 3/7 activation (indicative of pre-lethal cytotoxic effects and representative of different mechanism of toxicity) were measured at the single cells level, which allows high-throughput screening. Data were expressed as means±SD of three separate wells and individual comparisons were made with Student's test (SigmaPlot 9.0 program).
Primary cultures of cardiomyocytes were prepared from the hearts of Swiss mouse neonates P0-P2. Hearts were removed and enzymatically dissociated following instructions from Neonatal heart Dissociation Kit of Miltenyi Biotec. Then cardiomyocytes were isolated following also the instructions of Miltenyi biotec. Briefly, cells were isolated by depletion of non-target cells. Non-target cells (fibroblasts and endothelial cells) are directly magnetically labeled with a cocktail of monoclonal antibodies conjugated with MACS microbeads. The magnetically labeled non-target cells were depleted by retaining them within an MCS column in the magnetic fields of a MACS separator, while the unlabeled cardiomyocytes passed through the column. Then, cardiomyocytes were counted and plated on fibronectin-coated wells with cardiac myocyte complete medium (1% CMGS component, 1% penicillin/streplomycina and 5% FBS).
Cardiomyocytes from P0-P2 days mice were plated in fibronectin coated 96-well plates with a number of 30.000 cells per well. Cells were maintained in cardiac myocyte complete medium (Cardiac myocyte medium, growth factors, 5% FBS, 1% penicillin/streptomycin) for 1 day at 37° C. in a humidified 5% CO2 atmosphere. At day 2, cells were washed and treated with compounds in complete medium 4 h prior to being subjected to oxygen glucose deprivation for 18 hours at 37° C. The cultures were placed in an aerobic chamber (Billops-Rothenberg) and incubated with DMEM medium lacking glucose and growth factors, and aerated with an anaerobic gas mix (94.7% N2, 5% CO2, 0.3% O2) to remove residual oxygen. Control cells were kept in the original cardiac myocyte medium but under anaerobic conditions. At the end of the OGD insult the cells were removed from the anaerobic chamber, the OGD medium was replaced with cardiac myocyte medium containing glucose without growth factors, and the cells were incubated for additional 24 h. The test compounds were also present during the OGD insult and the recovery period. Some cells were treated as described above with NAC 100 μM as positive control of cardioprotection.
as §1, §2
Caspase 3/7 activation was determined using The CellEvent® Caspase-3n Green Detection Reagent which is intrinsically a non-fluorescent peptide that inhibits the ability of the dye to bind to DNA. However, after […] activation in apoptotic cells, the peptide is cleaved allowing the dye to bind to DNA producing a bright, fluorogenic response. […]

[2] = tested on: male Syrian Golden Hamsters
Description: Twenty-four (24) male Syrian Golden Hamsters were used in the study. Mucositis was induced by giving an acute radiation dose of 40 Gy directed to the left buccal cheek pouch on Day 0. Mucositis was evaluated clinically starting on Day 6 and continuing on alternate days until Day 28.
Mucositis was scored visually by comparison to a validated photographic scale, ranging from 0 for normal, to 5 for severe ulceration (clinical scoring). In descriptive terms, this scale is defined as described in Table 7 below: […]
A mucositis score of 3 or greater indicates ulcerative mucositis, a clinically significant threshold.
Statistical significance of observed differences was calculated using chi-squared analysis.
An analysis of the severity of mucositis was performed using the Mann-Whitney rank sum analysis to compare the visual mucositis scores for Groups 2 and 3 to the vehicle control group (Group 1) on each day of the analysis. In this analysis, 2 consecutive days of significant reduction in the mucositis score are generally required before it is regarded as clinically meaningful.
The significance of group differences observed in daily mucositis scores was determined using the Mann-Whitney rank sum test. This nonparametric statistic is appropriate for the visual mucositis scoring scale. The p-values for each calculation are shown. “x” denotes significant difference in mucositis scores. “y” denotes increase in comparison to vehicle Group (improvement). “z” denotes decrease.
“y” denotes an increase in comparison to vehicle Group, “z” denotes decrease (improvement).

physchem = details: 20 °C, thermodynamic from solid
[3] = tested on: primary human gingival epithelial cells (HGEPp); assay: OxiSelect intracellular ROS assay, H2O2-treated cells; assay type: cell-based
Description: 2. measure the effect of recrystallized oltipraz and formulated oltipraz on hydroxyl, peroxyl and other reactive oxygen species within HGEPp cells, using Cell Biolabs' OxiSelect™ Intracellular ROS Assay Kit. This assay employs the cell-permeable fluorogenic probe 2′,7′-dichlorodihydrofluorescin diacetate (DCFH-DA) which diffuses into cells and is deacetylated by cellular esterases to a nonfluorescent DCFH which is then rapidly oxidized to highly fluorescent 2′,7′-dichlorodihydrofluorescein (DCF) by ROS.
Prepared and mixed all reagents thoroughly before use. […] Once the HGEPp cells were cultured and ready on a microplate, the media was removed from all the wells and discarded. Washed the cells gently with DPBS 2-3 times. Removed the last wash and discarded it. • 3. Added 100 μL of 1×DCFH-DA/media solution to the cells. […] Fluorescence was read on a Fluorescence Plate Reader after 1 hour. […] Transferred 150 μL of the mixture to a fresh 24-well plate for fluorescence measurements at 530 nm. […]
Intracellular ROS was measured using a Spectramax M3 microplate reader.
Prepared and mixed all reagents thoroughly before use. […] Once the HGEPp cells were cultured and ready on a microplate, the media was removed from all the wells and discarded. […] Transferred 150 μL of the mixture to a fresh 24-well plate for fluorescence measurements at 530 nm.
Intracellular ROS was measured using a Spectramax M3 microplate reader. […]

[4] = Examples 10, 11, 12.5-800 μg/mL, procedure of Example 9
[5] = entire study duration, of 192 animal days

COc1ccc2cc3[n+](cc2c1OC)CCc1cc2c(cc1-3)OCO2 [Berberine]
effect on proliferation/survival of H2O2-induced oxidatively stressed HGEPp cells [1, 4]: little or no impact

OO [H2O2, hydrogen peroxide]
reduction in cell number ([1]; 0.3 mM H2O2, 4 h): 48%

CN(C)C(=N)N=C(N)N [Metformin]
effect on proliferation/survival of H2O2-induced oxidatively stressed HGEPp cells [1, 4]: little or no impact

C[C@]12N[C@H](Cc3ccccc31)c1ccccc12 [MK801]
normalization of plasma membrane integrity (LDH release) (rat cortical neurons): 33%
prevention of OGD-induced apoptosis (caspase 3/7 activation) (rat cortical neurons; 24 h after OGD): 25%
prevention of OGD-induced mortality (cell number, hoechst 33342) (rat cortical neurons; 24 h after OGD): 26%
re-establishment of mitochondrial membrane potential (TMRM) (rat cortical neurons; 24 hours post-exposure): 13%
re-establishment of neurite outgrowth affected by OGD (rat cortical neurons; average length, beta III tubulin): 94%
CASPASE score (rat cortical neurons; Table 16): 1 (1 (variation 20-40%))
HOECHST score (cell number) (rat cortical neurons; Table 16): 1 (1 (variation 20-40%))
LDH score (rat cortical neurons; Table 16): 1 (1 (variation 20-40%))
Neurite score (rat cortical neurons; Table 16): 3 (3 (variation 60-100%))
Neuroprotection degree (rat cortical neurons; Table 16): moderate (moderate (5-7))
TMRM score (rat cortical neurons; Table 16): 0 (0 (no neuroprotection or variation lower than 20%))
Total (sum of individual scores) (rat cortical neurons; Table 16): 6

CC(=O)N[C@@H](CS)C(=O)O [NAC]
normalization of OGD-induced LDH release (mouse cardiomyocytes): 26%
prevention of OGD-induced apoptosis (caspase 3/7) (mouse cardiomyocytes): 31%
protection against OGD-induced reduction in ATP levels (mouse cardiomyocytes): 21%
prevention of OGD-induced mortality (cell number) (mouse cardiomyocytes; 24 h after exposure): 21%
ATP score (mouse cardiomyocytes; Table 18): 1 (1 (variation 20-40%))
CASPASE score (mouse cardiomyocytes; Table 18): 1 (1 (variation 20-40%))
HOECHST score (cell number) (mouse cardiomyocytes; Table 18): 1 (1 (variation 20-40%))
LDH score (mouse cardiomyocytes; Table 18): 1 (1 (variation 20-40%))
Neuroprotection degree (mouse cardiomyocytes; Table 18): Moderate
Total (sum of individual scores) (mouse cardiomyocytes; Table 18): 4

Cc1c(-c2cnccn2)ssc1=S [Neat oltipraz, 4-methyl-5-(pyrazin-2-yl)-3H-1,2-dithiole-3-thione]
day of peak mean mucositis score ([2]; 40 Gy Day 0, 5 mg/mL, 0.2 mL topical BID, Days −3 to 28): 16 days
peak mean mucositis score ([2]; 40 Gy Day 0, 5 mg/mL, 0.2 mL topical to left cheek pouch BID, Days −3 to 28): 3.25±0.11
Percent Ulceration by Day (Score ≥3) ([2]; Day 6): 0.0%
Percent Ulceration by Day (Score ≥3) ([2]; Day 8): 0.0%
Percent Ulceration by Day (Score ≥3) ([2]; Day 10): 0.0%
Percent Ulceration by Day (Score ≥3) ([2]; Day 12): 50.0%
Percent Ulceration by Day (Score ≥3) ([2]; Day 14): 100.0%
Percent Ulceration by Day (Score ≥3) ([2]; Day 16): 100.0%
Percent Ulceration by Day (Score ≥3) ([2]; Day 18): 100.0%
Percent Ulceration by Day (Score ≥3) ([2]; Day 20): 100.0%
Percent Ulceration by Day (Score ≥3) ([2]; Day 22): 100.0%
Percent Ulceration by Day (Score ≥3) ([2]; Day 24): 50.0%
Percent Ulceration by Day (Score ≥3) ([2]; Day 26): 25.0%
Percent Ulceration by Day (Score ≥3) ([2]; Day 28): 25.0%
% Days ≥3 ([2]; entire study duration): 54.17%
Days <3 (animal days with mucositis score <3) [2, 5]: 88
Days ≥3 (animal days with mucositis score ≥3) [2, 5]: 104
solubility (physchem; 2% simulated intestinal fluid, fassgf or other biorelevant): 15.8 µg/mL (≈ 69.8 µM)
solubility (physchem; water): 3.1 µg/mL (≈ 13.7 µM)
effect on H2O2-induced decrease in HGEPp survival ([1]; Example 7, 50 to 800 μg/ml, 24 h pretreatment, then 0.3 mM H2O2 4 h): promoted cell proliferation and reduced H2O2-induced decrease in HGEPp survival
effect on ROS levels in H2O2 treated HGEPp cells ([3]; Example 7, 100 ug/ml and 200 ug/ml, 24 h pretreatment, P<0.05 versus PC): significantly reduced ROS levels

O=C1C(O)=C([C@H]2CC[C@H](c3ccc(Cl)cc3)CC2)C(=O)c2ccccc21 [Atovaquone, trans-2-[4-(4-chlorophenyl)cyclohexyl]-3-hydroxy-1,4-naphthalenedione]
effect on proliferation/survival of H2O2-induced oxidatively stressed HGEPp cells ([1]; Example 9, all doses tested 12.5-800 μg/mL (each), 24 hr pretreatment, 0.3 mM H2O2 4 h): no impact
effect on ROS levels in H2O2 challenged HGEPp cells ([3]; Example 9, 50, 100, 200 μg/mL, 24 hr pretreatment): does not change ROS levels
